A short description of experiment [1]: Stabilization of multiple-extruded polypropylene. To be noted: 0.05% of compound; heating zones 260, 270, 280° C.; measured at 230° C./2.16 kg; without compound 17.5. The procedure: 1.3 kg of polypropylene powder (Profax 6501), which has been prestabilized with 0.025% of Irganox®1076 (n-octadecyl 3-[3,5-di-tert-butyl-4-hydroxyphenyl]propionate) (melt index 3.2 g/10 min, measured at 230° C./2.16 kg) are blended with 0.05% of Irganox®1010 (pentaerythritol tetrakis[3-(3,5-di-tert-butyl-4-hydroxyphenyl)propionate]), 0.05% of calcium stearate, 0.03% of DHT 4A® (Kyowa Chemical Industry Co., Ltd., [Mg4.5Al2(OH)13CO3.3.5H2O]) and 0.05% of compound of Table 4. This blend is then extruded in an extruder having a cylinder diameter of 20 mm and a length of 400 mm at 100 rpm, the 3 heating zones being adjusted to the following temperatures: 260, 270, 280° C. The extrudate is cooled by drawing it through a water bath and is then granulated. This granulate is repeatedly extruded. After 3 extrusions, the melt index is measured (at 230° C./2.16 kg). A substantial increase in the melt index denotes pronounced chain degradation, i.e. poor stabilization.

Experiment [2] is described as follows: Stabilization of polyethylene during processing (Brabender plastograph). The note with it: 0.05 part compound and 0.05 part Irganox 1010 per 100 parts polyethylene; 220° C., 50 rpm; without compound 9.7. The procedure: 100 parts of polyethylene powder (Lupolen®5260 Z) are blended with 0.05 part of Irganox®1010 (pentaerythritol tetrakis[3-(3,5-di-tert-butyl-4-hydroxyphenyl)propionate]) and 0.05 part of a compound of Table 5 and the blend is kneaded in a Brabender plastograph at 220° C. and 50 rpm. During this time the kneading resistance is recorded continuously as torque. In the course of the kneading time the polymer begins to crosslink after prolonged constancy, as can be determined by the rapid increase in torque. The time taken until a marked increase in torque is shown in Table 5 as a measure of the stabilizing action. The longer this time is the better the stabilizing action.

Experiment [3] is described as follows: Discoloration of powder coatings based on a carboxy-functional polyester cured in electric and gas ovens. To be noted: total 0.60% stabilizers rel. to components 1 to 5. The procedure:
To prepare the powder coating composition based on a carboxy-functional polyester, components 1 to 6 (formulation without additives) or components 1 to 7 (formulation containing the stabilizers) are employed in the sequence indicated (cf. Table 13).
The components weighed out in this way are mixed using a planetary stirrer. The mixture is then extruded on a prism extruder at 300 revolutions/minute and at 100° C. and is rolled out. The powder coating composition is coarsely comminuted using a bench cutter and is ground in a Retsch ZM-1 ultracentrifugal mill with a 0.75 mm annular-perforation screen at 15,000 revolutions/minute. Finally, the powder is passed through a 30 μm screen on a centrifugal screening machine.
The finished powder coating composition is sprayed electrostatically to a coat thickness of 70 μm onto aluminium panels using an ESB-Wagner corona cup gun at 60 kV. Some of the coated panels are cured at 180° C. for 90 minutes in an electric oven. The remaining coated panels are cured at 180° C. for 45 minutes in a gas oven with an NO2 content of 20 ppm. The yellowness index (YI) of the samples is determined in accordance with ASTM D 1925-70. Low YI values denote little discoloration, high YI values denote severe discoloration of the samples.

The nature of experiment [4]: Light-colored SBR-vulcanisate, ozone atmosphere for 48 hours: crack formation. Set-up: key: grade 0: Grade 0 denotes no cracks; grade 1 denotes narrow flat cracks; grade 2 denotes moderately broad, moderately deep cracks, clearly visible; grade 3 denotes broad and deep cracks. To be noted: 1.0 phr stabilizer, ozone 50 pphm, 40° C., dynamic elongation, without stabilizer grade 1-2. The procedure:
(§1) 100 parts by weight of Cariflex®S-1502 (styrene/butadiene rubber, Shell) are processed at 60° C., in a mixing mill, with 30.0 parts by weight of Kronos®CL 220 [titanium dioxide (pigment), Kronos Titan GmbH], 30.0 parts by weight of Aktisil®MM [kaolin (filler), Hoffmann Mineral, Neuburg/Donau], 5.0 parts by weight of Naftolen®N 401 [plasticizer, Metallgesellschaft], 10.0 parts by weight of zinc oxide [vulcanization activator], 2.0 parts by weight of stearic acid [vulcanization activator], 2.0 parts by weight of sulfur [vulcanizing agent], 1.0 part by weight of Vulkacit®MOZ [vulcanisation accelerator, Bayer], 0.25 part by weight of Vulkacit®Thiuram [vulcanization accelerator, Bayer] and 1.0 part by weight of the stabilizer to be tested according to Table 24, to form a homogeneous mixture, the vulcanization system (sulfur, Vulkacit®MOZ and Vulkacit®Thiuram) not being added until the end of the mixing process. The mixture is vulcanized in electrical vulcanization presses at 150° C. until T95 is reached in the rheometer curves to form elastomer plates 2 mm thick, 21 cm long and 8.0 cm wide.
Some of the elastomer plates so obtained are tested for the action of ozone according to the ASTM standard D 3395-86 while subject to dynamic elongation. […] The test plates are then assessed for crack formation according to ASTM D 3395-86. […]

The nature of experiment [5]: Light-colored SBR-vulcanisate (Example 22): ΔL-color after 3 weeks in diffuse daylight. To be noted: 1.0 phr stabilizer; 3 weeks at room temperature in diffuse daylight; scale 0 to 100, 100 = no discoloration; without stabilizer 94. The procedure: as §1
(§2) The remaining elastomer plates are stored for 3 weeks at room temperature in a standard laboratory atmosphere in diffuse daylight. The ΔL-color of those plates is then determined according to DIN 6167, which corresponds to a scale of from 0 to 100. No discoloration is indicated by a value of 100.

The nature of experiment [6]: Light-colored SBR-vulcanisate, ozone atmosphere for 96 hours: crack formation. Set-up: key: grade 0: Grade 0 denotes no cracks; grade 1 denotes narrow flat cracks; grade 2 denotes moderately broad, moderately deep cracks, clearly visible; grade 3 denotes broad and deep cracks. The note with it: 2.0 phr stabilizer, ozone 50 pphm, 40° C., dynamic elongation, without stabilizer grade 2. The procedure: as §1, with “[plasticiser,” for “[plasticizer,”, “[vulcanization” for “[vulcanisation”, “[…],” for “Bayer] and 1.0 part by weight of the stabilizer to be tested according to Table 24,”
Some of the elastomer plates so obtained are tested for the action of ozone according to the ASTM standard D 3395-86 while subject to dynamic elongation. In this test the plates are first stored for 30 days in a standard atmosphere [23/50 SN-ISO 291]. Test specimens measuring 20 cm by 1 cm are then punched out and exposed to an ozone atmosphere for 96 hours (ozone content: 50 pphm; temperature: 40° C.; humidity: 50% rel.; elongation: 0 to 25%; elongation rate: 0.5 Hz; number of load cycles: approximately 173 000). The test plates are then assessed for crack formation according to ASTM D 3395-86. Grade 0 denotes no cracks; grade 1 denotes narrow flat cracks; grade 2 denotes moderately broad, moderately deep cracks, clearly visible; grade 3 denotes broad and deep cracks. The lower the grade number, the better the stabilization of the elastomer plates.

Experiment [7] in a line: Light-colored SBR-vulcanisate (Example 23): ΔL-color after 3 weeks in diffuse daylight. The note with it: 2.0 phr stabilizer; 3 weeks at room temperature in diffuse daylight; scale 0 to 100, 100 = no discoloration; without stabilizer 97. The procedure: as §1, with “[plasticiser,” for “[plasticizer,”, “[vulcanization” for “[vulcanisation”, “[…],” for “Bayer] and 1.0 part by weight of the stabilizer to be tested according to Table 24,”
as §2

The nature of experiment [8]: Stabilization of polycarbonate (yellowness index of extruded granulate). The note with it: 0.05% stabilizer; granulate after extrusion at a maximum of 280° C.; without stabilizer 10.3. How it is done:
1.0 kg of a polycarbonate powder which has been dried for 8 hours at 120° C. in a vacuum drying oven (Lexan®145, of General Electric) is charged with the stabilizers listed in Table 22 and is then mixed for 2 minutes in a Henschel mixer. This mixture is then extruded in a Schwabenthan extruder at a maximum of 280° C. The polymer string is then granulated. The granulate so obtained is packed into 1 cm thick polystyrene boxes and the yellowness index (YI) is determined according to ASTM D 1925-70. Low YI values denote little discoloration, high YI values high discoloration of the samples. […]

Experiment [9] is described as follows: Stabilization of multiple-extruded polypropylene at high temperature. To be noted: stabilizer 0.100% by weight, measured at 230° C./2.16 kg. The arrangement: unit not given here. The procedure:
This blend is then extruded in an extruder having a cylinder diameter of 20 mm and a length of 400 mm at 100 rpm, the 3 heating zones being adjusted to the following temperatures: 280, 320, 340° C. The extrudate is cooled by drawing it through a water bath and is then granulated. This granulate is repeatedly extruded. […] A substantial increase in the melt index denotes pronounced chain degradation, i.e. poor stabilization.

Experiment [10] is described as follows: Stabilization of polycarbonate (oven ageing at 135° C., yellowness index and transmission). To be noted: 0.05% stabilizer. How it is done:
This mixture is then extruded in a Schwabenthan extruder at a maximum of 280° C. The polymer string is then granulated. Using an injection moulding machine, plates having a layer thickness of 2 mm are then moulded from the granulate so obtained at a maximum of 300° C. […] Low YI values denote little discoloration, high YI values high discoloration of the patterns. […] The results are compiled in Tables 17 and 18.

Experiment [11] can be described thus: Stabilization of polycarbonate (time at 135° C. until YI = 20). The note with it: 0.05% stabilizer; without stabilizer 1560. How it is done:
1.0 kg of a polycarbonate powder which has been dried for 8 hours at 120° C. in a vacuum drying oven (Lexan®145, of General Electric) is charged with the stabilizers listed in Table 19 and is mixed for 2 minutes in a Henschel mixer. This mixture is then extruded in a Schwabenthan extruder at a maximum of 280° C. The polymer string is then granulated. Using an injection moulding machine, plates having a layer thickness of 2 mm are then moulded from the granulate so obtained at a maximum of 300° C. These plates are then aged in a circulating air oven at 135° C., the time in hours until the yellowness index (YI) reaches a value of 20 according to ASTM D 1925-70 being measured. […]

Here are results for five compounds from patent US6809208B2, “3-Arylbenzofuranones with electron-withdrawing substituents as stabilizers” (Ciba Specialty Chemicals Corporation, priority 2000, dated 2004).

The structures appear in SMILES notation.

With `CCCCCCCCOC(=O)c1ccc(C2C(=O)Oc3c2cc(C(C)(C)C)cc3C(C)(C)C)cc1` (stereo not drawn) [Compound (110), 5,7-di-tert-butyl-3-(4-n-octyloxycarbonylphenyl)-3H-benzofuran-2-one], in experiment [1], the “Melt index after 3 extrusions” value amounted to 4.7. Also, in [2], the “Time until increase in torque” value worked out at 27.5 min. The “Yellowness index after 90 minutes (ASTM D 1925-70)” value is recorded as 3.4 in experiment [3] (Curing for 45 minutes in a gas oven at 180° C., NO2 content 20 ppm, without stabilizer 4.2) and 2.7 in experiment [3] (Curing for 90 minutes in an electric oven at 180° C., without stabilizer 3.1).

In the case of `CC(C)(C)c1cc2c(c(C(C)(C)C)c1)OC(=O)C2c1cc(C#N)cc(C#N)c1` (stereo not drawn) [Compound (108)], the figures for the “Crack formation according to ASTM D 3395-86” value in experiment [4] and in experiment [6] were “grade 0-1” and “grade 1”, respectively. Moreover, the “ΔL-color according to DIN 6167” value worked out at 96 in experiment [5] and 95 in [7].

As to `CC(C)Nc1ccc(Nc2ccccc2)cc1` [Vulkanox ® 4010, 4-isopropylamino-diphenylamine, reference compound], the “Crack formation according to ASTM D 3395-86” value in experiment [4] and in experiment [6] was “grade 0” in each case. The “ΔL-color according to DIN 6167” value was determined as 70 in experiment [5] and 56 in [7].

With `Cc1cc(OP(Oc2cc(C)c(C(C)(C)C)cc2C(C)(C)C)c2ccc(-c3ccc(P(Oc4cc(C)c(C(C)(C)C)cc4C(C)(C)C)Oc4cc(C)c(C(C)(C)C)cc4C(C)(C)C)cc3)cc2)c(C(C)(C)C)cc1C(C)(C)C` [GSY ®P101], the Yellowness index in experiment [8] turned out to be 5.1.

In the case of `CC(C)(C)c1ccc(OP(Oc2ccc(C(C)(C)C)cc2C(C)(C)C)Oc2ccc(C(C)(C)C)cc2C(C)(C)C)c(C(C)(C)C)c1` [Irgafos ®168, tris(2,4-di-tert-butylphenyl)phosphite, reference compound], the figures for the “Melt index after 5 extrusions” value in experiment [9] (280° C.), in experiment [9] (320° C.) and in experiment [9] (340° C.) were 9.7, 43.8 and 80.1, respectively. Also, in [10] (2 mm plates, ASTM D 1925-70), the “Yellowness index prior to oven-ageing” value was 3.4. Further, in experiment [10] (at 450 nm), the “Transmission in % prior to oven-aging” value came to 84.7%. Moreover, the “Transmission in % after 2000 hours at 135° C.” value in [10] (at 450 nm, without stabilizer 76.4) amounted to 77.8%. Further, in experiment [10] (circulating air oven, without stabilizer 25.0), the “Yellowness index after 2000 hours at 135° C.” value came out at 23.5. The “Time in hours at 135° C. to YI = 20” value in experiment [11] turned out to be 2000 h.
